Paper PMC8419835

Test: Head-to-tail amide by intramolecular native chemical ligation: N,S-acyl shift of a C-terminal N-2-[thioethyl]glycine residue on TentaGel, transthioesterification with 50 equiv external thiol (MESNa or MPAA), then attack by N-terminal Cys and S,N-acyl shift, one pot
Conditions: the molecule shown is the open-chain precursor, aqueous: procedure B citrate pH 3 then phosphate pH 7.4 (DTT), procedure C 1 M TEAB pH 7.0 (MPAA, DTT), resin, 48.0 h, 2 steps

For “H-Cys-Thr-Lys-Ser-Ile-Pro-Pro-Ile-Cys-Phe-Pro-Asp-Gly-Arg-[N-2-(thioethyl)Gly]-linker-TentaGel (linker Ala-Ala-Met or bAla-Ala-bAla-Met, text inconsistent; side chains unprotected, both Cys as free SH; via MPAA thioester)”, the ring closure, yield over several steps (42-membered ring) was 40%.
In the case of `C[C@@H](O)[C@H](NC(=O)[C@H](Cc1ccccc1)NC(=O)[C@@H]1CCCN1C(=O)[C@H](CC(N)=O)NC(=O)[C@@H]1CCCN1C(=O)[C@H](Cc1ccccc1)NC(=O)[C@@H](N)CS)C(=O)Sc1ccc(CC(=O)O)cc1`, the ring closure, yield over several steps (21-membered ring) is reported as 55%.
Work on `C[C@H](NC(=O)[C@H](CCCCN)NC(=O)[C@@H]1CCCN1C(=O)[C@@H](N)CS)C(=O)SCCS(=O)(=O)O` yielded a ring closure, yield over several steps (12-membered ring) of 24.1%.
For `C[C@H](NC(=O)[C@H](CCCCN)NC(=O)[C@@H]1CCCN1C(=O)CNC(=O)[C@H](Cc1ccccc1)NC(=O)[C@@H](N)CS)C(=O)SCCS(=O)(=O)O`, the ring closure, yield over several steps (18-membered ring) was 25.8%.
For “H-Cys-Arg-Cys-Leu-Cys-Arg-Arg-Gly-Val-Cys-Arg-Cys-Ile-Cys-Thr-Arg-Gly-Phe-[N-2-(thioethyl)Gly]-linker-TentaGel (linker Ala-Ala-Met or bAla-Ala-bAla-Met, text inconsistent; side chains unprotected, all Cys as free SH; via MPAA thioester)”, the ring closure, yield over several steps (54-membered ring) was 39%.
